No end group written: not given here. *: point of attachment. For = O=C*
Columns and labels:
KG1a cells [1] = experiment: Cell growth assay, KG1a cells; format: cell-based, human; settings: Foxy-5 100 μM, 72 h
Description: (§1) A panel of human myeloid leukemia cell lines (HL60, K562, KG1a, THP1 and U937) and HS-5 mesenchymal stromal cells lineage were cultured in Roswell Park Memorial Institute medium-1640 (RPMI; Sigma) containing 10% Fetal Bovine Serum (Gibco), glutamine (2 mM; Sigma), penicillin (100 μg/mL; Sigma), streptomycin (100 μg/mL; Sigma), and amphotericin B (0.25 μg/mL; Gibco). The cells were maintained in a humidified atmosphere at 37° C. and 5% CO2 and the experiments were performed when they reached exponential growth. For the assays, cells were seeded on a 24-well plate and treated or not with Foxy-5 for 72 hours.
(§2) Cells treated with Foxy or with vehicle were collected and cell number was evaluated by manual counting in monoculture and by microscopy with Image J software analysis in 2D culture.
(§3) Next, we evaluated the proliferation rates since this process is modulated by ROS. We treated the cells with Foxy-5 (100 μM) or with vehicle (DMSO) during 72 hours, and then cell growth was analyzed by counting the cells in monoculture, manually, or by the Image J software analysis of the 2D cultures. […] Similar results were obtained in the 2D culture system using leukemia cells and HS-5 mesenchymal stromal cells.

K562 cells = experiment: Cell growth assay, K562 cells; format: cell-based, human; settings: Foxy-5 100 μM, 72 h
Description: as §1, §2, §3

KG1a cells [2] = experiment: Cell cycle assay, KG1a cells; format: cell-based, human; settings: 72 h
Description: as §1
Cells treated with Foxy or with vehicle were collected and fixed, at least, 24 hours in 70% ethanol. DNA was stained with a buffer containing iodide propidium (20 μg/mL; Sigma) and RNase A (10 μg/mL; Sigma). Cell fluorescence was detected with a FACSCalibur flow cytometer (BD). The proportions of cells in the cell cycle phases were analyzed by Modifit (Verify Software House Inc), according to DNA distributions.
As we observed a reduction in the leukemic proliferation after Foxy-5 treatment, we also analyzed the cell cycle phases. Leukemia cell lines were treated for 72 hours with Foxy-5, at doses of 50 μM and 100 μM, or vehicle, stained with the Piper buffer containing RNAse and iodeto propidium and then analyzed by flow cytometry.

U937 cells [3] = experiment: Transwell chemotaxis assay toward CXCL12, U937 cells; format: cell-based, human; settings: U937, Foxy-5 100 μM 72 h pretreatment, CXCL12 100 ng/mL, 24 h
Description: Leukemic cell lines, pretreated or not with Foxy-5 (72 hours of stimulation) were tested for chemotaxis in Transwell-based assays for Chemotaxis (6.5 mm diameter, 8 μm pore size; Corning). Polycarbonate membranes were incubated with poly-L-lysine (1 mg/mL) for 1 hour at 37° C. followed by saline buffer washing. Briefly, cells were collected, washed with media containing bovine serum albumin (0.1% BSA; Sigma), and then seeded at a density of 5×10^5 cells into the upper chamber of the transwell. The lower chamber was filled with media containing 0.5% BSA (negative control), media containing 10% FBS (positive control) and media 5 containing 0.5% BSA with CXCL12 (100 ng/ml; Peprotech) (Melo et al., 2014). Following 6 h or 24 h of incubation at 37° C., cells that migrated into the lower chamber were collected, centrifuged, resuspended in saline buffer and counted. The number of migrated cells was expressed as a percentage of the input, i.e., the cells number applied directly to the lower compartment in parallel wells. The migration of cells was normalized to 100%+/−standard deviation (SD) of triplicates (Favaro et al., 2013).
We investigated whether restoring of WNT5A could enable the modulation CXCL12-induced chemotaxis of leukemia cells. […]

U937 cells [4] = experiment: Cell differentiation assay with PMA, U937 cells; format: cell-based, human; settings: U937, PMA (200 nM), 72 hours, morphology by microscopy
Description: Cells were subjected to treatment with Foxy-5 or with vehicle, in the presence or absence of PMA (200 nM). After 72 hours, adherent cells were washed with PBS and their morphology was examined using a Zeiss Axi-oskope 2 Plus microscope (Carl Zeiss AG). The program ImageJ was used to assess differentiation.
PMA reagent is a typical inducer of AML cell differentiation through generation of ROS. As U937 leukemia cell lineage corresponds to a model of differentiated monocyte and/or macrophage following treatment with PMA, we examined the effects of Foxy-5 treatment on U937 differentiation-inducing PMA. Following treatment with PMA for 72 hours, cells were examined by microscopy to detect morphology. The majority of cells treated with vehicle and stimulated with PMA differentiated into macrophages and adhered to the plates.

U937 xenografts = experiment: U937 xenograft mouse model, tumour growth; format: in vivo; settings: NOD/SCID mice, Foxy-5 40 μg/μL i.p. once every 2 days
Description: The control group received equal amounts of vehicle solution.

[5] = NOD/SCID mice, U937 xenograft, Foxy-5 vs vehicle, after 9 days
Description: For the xenograft mouse model, a concentration of 40 μg/μL of Foxy-5 was used. […] Mice were anesthetized with isoflurane (4%) and U937 cells (5,000,000 cells/mouse) were inoculated in the mouse dorsal region by subcutaneous injection. When the tumours reached 100 mm^3, the treatment was initiated. Foxy-5 was administered once every 2 days by intraperitoneal injection. The control group received equal amounts of vehicle solution. The tumour volumes were measured every 2 days and evaluated according to the formula: tumour volume (mm^3) ¼ (length×width^2)/2. After 9 days, the mice were sacrificed, the tumour excised and tumour dimensions (tumour volume (mm^3) and tumour weight (grams, g)) were evaluated.

Substance: Foxy-5: Formylated hexapeptide fragment of WNT5A: MDGCEL (SEQ. ID. NO. 3) with methionine in position 1 as N-formyl methionine; WNT5A-mimicking compound (For-MDGCEL; listed as Homo sapiens)
- reduced cell growth compared to vehicle treated cells (KG1a cells [1]; 2D culture with HS-5 stromal cells): 2.63 fold decrease
- reduced cell growth compared to vehicle treated cells (KG1a cells [1]; monoculture): 1.37 fold decrease
- reduced cell growth compared to vehicle treated cells (K562 cells; K562, 2D culture with HS-5 stromal cells): 1.79 fold decrease
- reduced cell growth compared to vehicle treated cells (K562 cells; K562, monoculture): 3.12 fold decrease
- cells in G0/G1 cell cycle phase (average) (KG1a cells [2]; co-cultured with HS5 stromal cells, Foxy-5 50 μM): 78.58%
- cells in G0/G1 cell cycle phase (average) (KG1a cells [2]; co-cultured with HS5 stromal cells, Foxy-5 100 μM): 76.53%
- cells in G0/G1 cell cycle phase (average) (KG1a cells [2]; monoculture, Foxy-5 50 μM): 69.95%
- cells in G0/G1 cell cycle phase (average) (KG1a cells [2]; monoculture, Foxy-5 100 μM): 73.79%
- CXCL12-induced chemotaxis (migrated cells as percentage of the input, average) (U937 cells [3]): 40.35%
- PMA-mediated differentiation compared with PMA-stimulated cells treated with vehicle (U937 cells [4]): reduced PMA-mediated differentiation
- tumour volume (median) (U937 xenografts; 9 days): 469 mm^3
- inhibition of tumour growth (U937 xenografts; vs control group at day 9): 55.46%
- inhibition of tumour weight (U937 xenografts; vs control group at day 9): 45.51%
- body weights of the xenograft mice [5]: did not vary significantly

— US20240226234A1, “WNT5A PEPTIDES FOR THE TREATMENT OF ACUTE M[…]” (W[…], priority 2021, published 2024)
